Common to all, as to test: Glasshouse assay for herbicidal activity (pre- and post-emergence), percentage phytotoxicity
Common to all, as to type: in vivo

The subject of one assay is Lolium perenne (LOLPE). As to conditions: Lolium perenne. An outline of the steps:
(§1)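 Visually rated damage, 0–100%. PRE spray 1 d after sowing, scored 20 DAA; POST spray ~12 d, scored 15 DAA. Glasshouse at 65% humidity, 16 h day.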

The test system of a further assay is Avena fatua (AVEFA). As to conditions: Avena fatua. An outline of the steps: as §1
The subject of assay [1] is Echinochloa crus-galli (ECHCG). As to conditions: Echinochloa crus-galli. An outline of the steps: as §1
In assay [2] the test system is Alopecurus myosuroides (ALOMY). As to conditions: Alopecurus myosuroides. In outline:
as §1

[3] abbreviates: post-emergence, 360 h, POST-emergence, rate 250 g/ha, visual score 15 DAA (100%=total damage, 0%=no damage), read-out: Post-emergence herbicidal activity (percentage phytotoxicity) LOLPE POST.
The mark [4] stands for this setting: pre-emergence, 480 h, PRE-emergence, rate 250 g/ha, visual score 20 DAA (100%=total damage, 0%=no damage), read-out: Pre-emergence herbicidal activity (percentage phytotoxicity) LOLPE PRE.
Setting [5] is: post-emergence, 360 h, POST-emergence, rate 250 g/ha, visual score 15 DAA (100%=total damage, 0%=no damage), read-out: Post-emergence herbicidal activity (percentage phytotoxicity) AVEFA POST.
Where [6] appears, read: pre-emergence, 480 h, PRE-emergence, rate 250 g/ha, visual score 20 DAA (100%=total damage, 0%=no damage), read-out: Pre-emergence herbicidal activity (percentage phytotoxicity) AVEFA PRE.
Where [7] appears, read: post-emergence, 360 h, POST-emergence, rate 250 g/ha, visual score 15 DAA (100%=total damage, 0%=no damage), read-out: Post-emergence herbicidal activity (percentage phytotoxicity) ECHCG POST.
The mark [8] stands for this setting: pre-emergence, 480 h, PRE-emergence, rate 250 g/ha, visual score 20 DAA (100%=total damage, 0%=no damage), read-out: Pre-emergence herbicidal activity (percentage phytotoxicity) ECHCG PRE.
The mark [9] stands for this setting: post-emergence, 360 h, POST-emergence, rate 250 g/ha, visual score 15 DAA (100%=total damage, 0%=no damage), read-out: Post-emergence herbicidal activity (percentage phytotoxicity) ALOMY POST.
Setting [10] is: pre-emergence, 480 h, PRE-emergence, rate 250 g/ha, visual score 20 DAA (100%=total damage, 0%=no damage), read-out: Pre-emergence herbicidal activity (percentage phytotoxicity) ALOMY PRE.
[11] abbreviates: post-emergence, 360 h, Rate 250 g/ha, post-emergence, assessed visually 15 DAA, 100%=total damage, 0%=no damage, read-out: Post-emergence herbicidal activity (percentage phytotoxicity) LOLPE POST.
[12] abbreviates: pre-emergence, 480 h, Rate 250 g/ha, pre-emergence, assessed visually 20 DAA, 100%=total damage, 0%=no damage, read-out: Pre-emergence herbicidal activity (percentage phytotoxicity) LOLPE PRE.
Setting [13] is: post-emergence, 360 h, Rate 250 g/ha, post-emergence, assessed visually 15 DAA, 100%=total damage, 0%=no damage, read-out: Post-emergence herbicidal activity (percentage phytotoxicity) AVEFA POST.
[14] abbreviates: pre-emergence, 480 h, Rate 250 g/ha, pre-emergence, assessed visually 20 DAA, 100%=total damage, 0%=no damage, read-out: Pre-emergence herbicidal activity (percentage phytotoxicity) AVEFA PRE.
Setting [15] is: post-emergence, 360 h, Rate 250 g/ha, post-emergence, assessed visually 15 DAA, 100%=total damage, 0%=no damage, read-out: Post-emergence herbicidal activity (percentage phytotoxicity) ECHCG POST.
The mark [16] stands for this setting: pre-emergence, 480 h, Rate 250 g/ha, pre-emergence, assessed visually 20 DAA, 100%=total damage, 0%=no damage, read-out: Pre-emergence herbicidal activity (percentage phytotoxicity) ECHCG PRE.
Where [17] appears, read: post-emergence, 360 h, Rate 250 g/ha, post-emergence, assessed visually 15 DAA, 100%=total damage, 0%=no damage, read-out: Post-emergence herbicidal activity (percentage phytotoxicity) ALOMY POST.
The mark [18] stands for this setting: pre-emergence, 480 h, Rate 250 g/ha, pre-emergence, assessed visually 20 DAA, 100%=total damage, 0%=no damage, read-out: Pre-emergence herbicidal activity (percentage phytotoxicity) ALOMY PRE.
Where [19] appears, read: post-emergence, 360 h, 250 g/ha, post-emergence, 15 DAA, visual assessment (100%=total damage, 0%=no damage), read-out: Post-emergence herbicidal activity (percentage phytotoxicity) LOLPE POST.
Where [20] appears, read: pre-emergence, 480 h, 250 g/ha, pre-emergence, 20 DAA, visual assessment (100%=total damage, 0%=no damage), read-out: Pre-emergence herbicidal activity (percentage phytotoxicity) LOLPE PRE.
Where [21] appears, read: post-emergence, 360 h, 250 g/ha, post-emergence, 15 DAA, visual assessment (100%=total damage, 0%=no damage), read-out: Post-emergence herbicidal activity (percentage phytotoxicity) AVEFA POST.
Where [22] appears, read: pre-emergence, 480 h, 250 g/ha, pre-emergence, 20 DAA, visual assessment (100%=total damage, 0%=no damage), read-out: Pre-emergence herbicidal activity (percentage phytotoxicity) AVEFA PRE.
Where [23] appears, read: post-emergence, 360 h, 250 g/ha, post-emergence, 15 DAA, visual assessment (100%=total damage, 0%=no damage), read-out: Post-emergence herbicidal activity (percentage phytotoxicity) ECHCG POST.
Setting [24] is: pre-emergence, 480 h, 250 g/ha, pre-emergence, 20 DAA, visual assessment (100%=total damage, 0%=no damage), read-out: Pre-emergence herbicidal activity (percentage phytotoxicity) ECHCG PRE.
The mark [25] stands for this setting: post-emergence, 360 h, 250 g/ha, post-emergence, 15 DAA, visual assessment (100%=total damage, 0%=no damage), read-out: Post-emergence herbicidal activity (percentage phytotoxicity) ALOMY POST.
Where [26] appears, read: pre-emergence, 480 h, 250 g/ha, pre-emergence, 20 DAA, visual assessment (100%=total damage, 0%=no damage), read-out: Pre-emergence herbicidal activity (percentage phytotoxicity) ALOMY PRE.

SMILES strings stand for the structures. Where two headings read alike, the source gives them in different places.

In the case of `C=CC(C)NC(=O)CC1CC(=O)C(c2c(C)cc(-c3ncc(Cl)cn3)cc2C)C1=O` (stereo not drawn) [Compound B345], the pest or weed control at 250 g/ha in the assay on Lolium perenne (LOLPE) (post-emergence, 360 h, Rate 250 g/ha, post-emergence, visual assessment 15 DAA, 100%=total damage, 0%=no damage, read-out: Post-emergence herbicidal activity (percentage phytotoxicity) LOLPE POST) worked out at 100%; with Lolium perenne (LOLPE) (pre-emergence, 480 h, Rate 250 g/ha, pre-emergence, visual assessment 20 DAA, 100%=total damage, 0%=no damage, read-out: Pre-emergence herbicidal activity (percentage phytotoxicity) LOLPE PRE), 100%; in the assay with Avena fatua (AVEFA) (post-emergence, 360 h, Rate 250 g/ha, post-emergence, visual assessment 15 DAA, 100%=total damage, 0%=no damage, read-out: Post-emergence herbicidal activity (percentage phytotoxicity) AVEFA POST) it was 100%; with Avena fatua (AVEFA) (pre-emergence, 480 h, Rate 250 g/ha, pre-emergence, visual assessment 20 DAA, 100%=total damage, 0%=no damage, read-out: Pre-emergence herbicidal activity (percentage phytotoxicity) AVEFA PRE), 90%; in assay [1] (post-emergence, 360 h, Rate 250 g/ha, post-emergence, visual assessment 15 DAA, 100%=total damage, 0%=no damage, read-out: Post-emergence herbicidal activity (percentage phytotoxicity) ECHCG POST), 100%; in assay [1] (pre-emergence, 480 h, Rate 250 g/ha, pre-emergence, visual assessment 20 DAA, 100%=total damage, 0%=no damage, read-out: Pre-emergence herbicidal activity (percentage phytotoxicity) ECHCG PRE), 100%. Besides, the pest or weed control at 250 g/ha is 100% in assay [2] (post-emergence, 360 h, Rate 250 g/ha, post-emergence, visual assessment 15 DAA, 100%=total damage, 0%=no damage, read-out: Post-emergence herbicidal activity (percentage phytotoxicity) ALOMY POST) and 100% in assay [2] (pre-emergence, 480 h, Rate 250 g/ha, pre-emergence, visual assessment 20 DAA, 100%=total damage, 0%=no damage, read-out: Pre-emergence herbicidal activity (percentage phytotoxicity) ALOMY PRE).
On to `CC#Cc1cc(C)c(C2C(=O)CC(CC(=O)NCc3ccc(OC)cc3)C2=O)c(C)c1` (stereo not drawn) [Compound B184], for which the pest or weed control at 250 g/ha came out at 90% with Lolium perenne (LOLPE) (setting [3]); 100% in the assay on Lolium perenne (LOLPE) (setting [4]); 90% with Avena fatua (AVEFA) (setting [5]); 90% with Avena fatua (AVEFA) (setting [6]); 100% in assay [1] (setting [7]); 100% in assay [1] (setting [8]). In addition, the pest or weed control at 250 g/ha in assay [2] (setting [9]) and in assay [2] (setting [10]) was 90% in each case.
On to `C=CCNC(=O)CC1CC(=O)C(c2c(C)cc(OCC(F)(F)F)cc2CC)C1=O` (stereo not drawn) [Compound B218], for which the pest or weed control at 250 g/ha with Lolium perenne (LOLPE) (setting [3]) came out at 100%; with Lolium perenne (LOLPE) (setting [4]), 100%; in the assay with Avena fatua (AVEFA) (setting [5]) it was 100%; in the assay on Avena fatua (AVEFA) (setting [6]), 90%; in assay [1] (setting [7]), 100%; in assay [1] (setting [8]), 100%. Moreover, the pest or weed control at 250 g/ha in assay [2] (setting [9]) and in assay [2] (setting [10]) was 100% each time.
As for `C#CCNC(=O)CC1CC(=O)C(c2c(C)cc(-c3ncc(Cl)cc3F)cc2C)C1=O` (stereo not drawn) [Compound A69], the pest or weed control at 250 g/ha (in the assay with Lolium perenne (LOLPE) (setting [11]); in the assay with Lolium perenne (LOLPE) (setting [12]); in the assay with Avena fatua (AVEFA) (setting [13]); with Avena fatua (AVEFA) (setting [14]); in assay [1] (setting [15]); in assay [1] (setting [16])) was 100% throughout. Also, the pest or weed control at 250 g/ha in assay [2] (setting [17]) and in assay [2] (setting [18]) was 100% in each case.
Take `Cc1cc(OCC(F)(F)F)cc(C)c1C1C(=O)CC(CC(=O)NC(C)(C)C)C1=O` (stereo not drawn) [Compound B139]: the pest or weed control at 250 g/ha in the assay with Lolium perenne (LOLPE) (setting [19]) is 80%; with Lolium perenne (LOLPE) (setting [20]), 90%; with Avena fatua (AVEFA) (setting [21]), 90%; in the assay with Avena fatua (AVEFA) (setting [22]), 50%; in assay [1] (setting [23]) it was 100%; in assay [1] (setting [24]), 100%. In addition, the results for the pest or weed control at 250 g/ha in assay [2] (setting [25]) and in assay [2] (setting [26]) were 90% and 60%, respectively.
Consider `C=C(Br)CNC(=O)CC1CC(=O)C(c2c(C)cc(C)cc2C)C1=O` (stereo not drawn) [Compound B102], for which the pest or weed control at 250 g/ha was 90% with Lolium perenne (LOLPE) (setting [19]); 100% with Lolium perenne (LOLPE) (setting [20]); 60% in the assay on Avena fatua (AVEFA) (setting [21]); 0% in the assay on Avena fatua (AVEFA) (setting [22]); 60% in assay [1] (setting [23]); 80% in assay [1] (setting [24]). In addition, the pest or weed control at 250 g/ha in assay [2] (setting [25]) and in assay [2] (setting [26]) was 60% in each case.
With `Cc1cc(C)c(C2C(=O)CC(CC(=O)NCc3ncc(C(F)(F)F)cc3Cl)C2=O)c(C)c1` (stereo not drawn) [Compound A109], the pest or weed control at 250 g/ha in the assay on Lolium perenne (LOLPE) (setting [11]) turned out to be 80%; in the assay on Lolium perenne (LOLPE) (setting [12]), 90%; with Avena fatua (AVEFA) (setting [13]), 80%; in the assay on Avena fatua (AVEFA) (setting [14]), 50%; in assay [1] (setting [15]), 80%; in assay [1] (setting [16]), 80%. The pest or weed control at 250 g/ha in assay [2] (setting [17]) and in assay [2] (setting [18]) was 90% each time.
On to `CCC(C)NC(=O)CC1CC(=O)C(c2c(C)cc(-n3cc(Cl)cn3)cc2C)C1=O` (stereo not drawn) [Compound B315], for which the pest or weed control at 250 g/ha with Lolium perenne (LOLPE) (setting [3]) worked out at 80%; in the assay on Lolium perenne (LOLPE) (setting [4]), 70%; in the assay with Avena fatua (AVEFA) (setting [5]), 100%; with Avena fatua (AVEFA) (setting [6]), 80%; in assay [1] (setting [7]), 100%; in assay [1] (setting [8]), 100%. Also, the pest or weed control at 250 g/ha in assay [2] (setting [9]) worked out at 90%; in assay [2] (setting [10]), 80%.
Take `CCCNC(=O)CC1CC(=O)C(c2c(C)cccc2CC)C1=O` (stereo not drawn) [Compound B150]: the pest or weed control at 250 g/ha stood at 100% in the assay on Lolium perenne (LOLPE) (setting [19]); 100% with Lolium perenne (LOLPE) (setting [20]); 100% in the assay on Avena fatua (AVEFA) (setting [21]); 90% in the assay on Avena fatua (AVEFA) (setting [22]); 100% in assay [1] (setting [23]); 100% in assay [1] (setting [24]). Besides, the pest or weed control at 250 g/ha in assay [2] (setting [25]) and in assay [2] (setting [26]) was 100% each time.

The values are drawn from patent US10206394B2, “Herbicidal compounds” (Syngenta Participations AG, priority 2014, dated 2019).
